This is an account of results in patent publication US11564923B2, “Compounds and pharmaceutical compositions thereof for the treatment of inflammatory disorders” (Galapagos NV, priority 2017, dated 2023).

Assay [1] deals with T1, Recombinant human JAK2 (catalytic domain, amino acids 808-1132) (Homo sapiens, UniProt O60674).
T1 construct: catalytic domain, amino acids 808-1132
The assay is described as follows: JAK2 inhibition assay. Also: 0.7 µM ATP. Format: biochemical. The following applies: read-out: JAK2 potency IC50. Here is the method: After 60 min at room temperature, reactions are stopped by adding 20 μL/well of detection mixture (1× detection buffer (Perkin Elmer, catalog number CR97-100) with 0.5 nM Europium-anti-phosphotyrosine (PT66) (Perkin Elmer, catalog number AD0068/AD0069) and 10 mM EDTA). […] Kinase activity is calculated by subtracting the ratio obtained in the presence of a positive control inhibitor (1 μM staurosporine) from the ratio obtained in the presence of vehicle. The ability of a test compound to inhibit this activity (or percentage inhibition) is determined as:
(§1) [formula] wherein Fluorescent ratio test compound=ratio RFU665/RFU615*1000 determined for sample with test compound present Fluorescent ratio control=ratio RFU665/RFU615*1000 determined for sample with positive control inhibitor Fluorescent ratio vehicle=ratio RFU665/RFU615*1000 determined in the presence of vehicle
Dose dilution series are prepared for compound enabling the testing of dose-response effects in the JAK2 assay and the calculation of the IC50 for the compound. Each compound is routinely tested at concentration of 20 μM followed by a 1/5 serial dilution, 10 points in a final concentration of 1% DMSO. […] The data are expressed as the average IC50 from the assays.

The target in assay [2] is Recombinant human JAK3 catalytic domain (amino acids 781-1124) (Homo sapiens, UniProt P52333). Nature of the assay: JAK3 inhibition assay. Format: biochemical. Here is the method:
After 45 min at 30° C., reactions are stopped by adding 25 μL/well of 150 mM phosphoric acid. […] Plates are washed 6 times with 300 μL per well of a 75 mM phosphoric acid solution and the bottom of the plates is sealed. […] Kinase activity is calculated by subtracting counts per min (cpm) obtained in the presence of a positive control inhibitor (10 μM staurosporine) from cpm obtained in the presence of vehicle. The ability of a test compound to inhibit this activity (or percentage inhibition) is determined as: […]
cpm test compound=cpm determined for sample with test compound present cpm control=cpm determined for sample with positive control inhibitor cpm vehicle=cpm determined in the presence of vehicle
Dose dilution series were prepared for the compounds enabling the testing of dose-response effects in the JAK3 assay and the calculation of the IC50 for each compound. Each compound is routinely tested at concentration of 20 μM followed by a 1/5 serial dilution, 10 points in a final concentration of 1% DMSO.

Assay [3] addresses T2, Recombinant human TYK2 catalytic domain (amino acids 871-1187) (Homo sapiens, UniProt P29597).
T2 construct: catalytic domain (amino acids 871-1187)
T2 sequence (P29597 871-1187): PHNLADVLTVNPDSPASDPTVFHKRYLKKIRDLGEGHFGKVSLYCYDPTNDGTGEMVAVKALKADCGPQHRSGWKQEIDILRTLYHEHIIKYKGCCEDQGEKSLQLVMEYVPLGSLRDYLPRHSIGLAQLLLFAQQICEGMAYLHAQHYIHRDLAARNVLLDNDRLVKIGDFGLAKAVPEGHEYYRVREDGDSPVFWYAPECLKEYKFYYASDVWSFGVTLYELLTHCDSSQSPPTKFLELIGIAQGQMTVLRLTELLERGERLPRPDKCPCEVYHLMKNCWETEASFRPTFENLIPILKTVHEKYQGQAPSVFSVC
Nature of the assay: TYK2 radioactive assay polyGT substrate. Also: 0.1 µM ATP. It counts as biochemical. Summed up:
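Reaction at 30° C. for 120 min, ended with 150 mM phosphoric acid, washed, counted; percent inhibition scaled between vehicle and 10 μM staurosporine cpm.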

Assay [4] addresses T3, Recombinant human JAK1 (catalytic domain, amino acids 866-1154) (Homo sapiens, UniProt P23458).
T3 construct: catalytic domain, amino acids 866-1154
Nature of the assay: JAK1 inhibition assay. The following applies: read-out: JAK1 potency IC50. It counts as biochemical. How it is done:
After 60 min at room temperature, reactions are stopped by adding 20 μL/well of detection mixture (1× detection buffer (Perkin Elmer, catalog number CR97-100), 0.5 nM Europium-anti-phosphotyrosine (PT66) (Perkin Elmer, catalog number AD0068/AD0069), 10 mM EDTA). […] Kinase activity is calculated by subtracting the ratio obtained in the presence of a positive control inhibitor (1 μM staurosporine) from the ratio obtained in the presence of vehicle. The ability of a test compound to inhibit this activity (or percentage inhibition) is determined as:
as §1
Dose dilution series were prepared for the compounds enabling the testing of dose-response effects in the JAK1 assay and the calculation of the IC50 for the compound. Each compound is routinely tested at concentration of 20 μM followed by a 1/5 serial dilution, 10 points in a final concentration of 1% DMSO. […] The data are expressed as the average IC50 from the assays.

In assay [5] the test system is IL-12 activation of STAT4 in NK-92 cells. Nature of the assay: IL-12 activation of STAT4 in NK-92 cells using AphaLISA SureFire technology. Format: cell-based. The following applies: Homo sapiens, NK92; IL-12 activation of STAT4 in NK-92 cells, AlphaLISA SureFire; average IC50; read-out: IL12 pSTAT4 IC50. How it is done:
IL-2 is added freshly to the medium with each medium refreshment step. Cells are cultured in a humidified incubator at 37° C. 5% CO2.
A subcultured fraction of NK-92 cells is washed once in culture medium without rhIL-2 the day before the experiment and incubated overnight in a culture flask.
5% CO2. […] NK-92 cells are triggered with rhIL-12 for 30 min at 37° C. 5% CO2.
After 30 min of cytokine stimulation the cells are lysed by addition of 15 μL 5× lysis buffer (supplemented with the AlphaLISA kit). After 10 minutes, plates are frozen at −80° C. overnight and the next day the levels of phospho-STAT4 are quantified using the AlphaLISA SureFire ULTRA p-STAT4 (Tyr693) (Perkin Elmer, Catalogue number ALSU-PST4-A10K) according to the manufacturers instructions. AlphaLISA signal (relative light units) is measured using an Envision (Perkin Elmer).
(§2) The percentage inhibition is calculated as: […]
RLU(trigger/veh): Relative lumescent signal determined in presence of vehicle and trigger
RLU(test compound): Relative luminescent signal determined in presence of test compounds and trigger
PIN values are plotted for compounds tested in dose-response and IC50 values are derived using GraphPad Prism Software applying non-linear regression (sigmoidal) curve fitting. The data are expressed as the average IC50 from different experiments.

For assay [6], the system named is IFNα activation of STAT1 in PBMC. The assay is described as follows: IFNα activation of STAT1 in PBMC. The following applies: Homo sapiens; IFNα activation of STAT1 in PBMC; average IC50; read-out: IFNα signaling inhibitory potency IC50. It counts as cell-based. Here is the method: After these 2 wash steps the cell pellet is dissolved in ammonium chloride buffer (1.5 M NH4Cl, 100 mM NaHCO3 and 10 mM Na2.EDTA) for lysis of the red blood cells.
PBMC are treated with test compound for 30 min at 37° C. 5% CO2. […] After 30 min of test compound/vehicle pre-treatment, PBMC are stimulated for 30 min at 37° C. 5% CO2 with recombinant human IFNα (PeproTech, catalog number 300-02A) at a final concentration of 5 ng/mL by addition of 20 μL (10× concentrated) cytokine trigger to obtain a final volume of 200 μL per well.
After 30 min of cytokine stimulation, 200 μL of cell suspension is transferred to a 96-well V-bottom plate, centrifugated for 5 min at 1000 rpm to pellet cells, followed by removal of supernatant.
as §2
RCLU(vehicle control): Relative Chemiluminescent signal determined in presence of vehicle and trigger
RCLU(test compound): Relative Chemiluminescent signal determined in presence of test compounds and trigger
RCLU(positive control): Relative Chemiluminescent signal determined in presence of positive control and trigger
PIN values are plotted for compounds tested in dose-response and average IC50 values are derived using GraphiPad Prism Software applying non-linear regression (sigmoidal) curve fitting.

Where a name gives a salt, the structure may show the parent alone.

T1 sequence (O60674 808-1132): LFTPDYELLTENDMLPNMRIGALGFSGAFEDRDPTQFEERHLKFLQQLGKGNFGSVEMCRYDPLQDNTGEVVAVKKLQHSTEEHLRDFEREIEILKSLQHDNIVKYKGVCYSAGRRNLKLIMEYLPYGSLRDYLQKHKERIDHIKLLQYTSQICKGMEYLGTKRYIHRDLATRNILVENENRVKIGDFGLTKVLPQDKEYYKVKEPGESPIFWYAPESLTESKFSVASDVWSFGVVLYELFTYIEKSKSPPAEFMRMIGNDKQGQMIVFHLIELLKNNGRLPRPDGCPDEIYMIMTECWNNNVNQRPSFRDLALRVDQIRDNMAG
T3 sequence (P23458 866-1154): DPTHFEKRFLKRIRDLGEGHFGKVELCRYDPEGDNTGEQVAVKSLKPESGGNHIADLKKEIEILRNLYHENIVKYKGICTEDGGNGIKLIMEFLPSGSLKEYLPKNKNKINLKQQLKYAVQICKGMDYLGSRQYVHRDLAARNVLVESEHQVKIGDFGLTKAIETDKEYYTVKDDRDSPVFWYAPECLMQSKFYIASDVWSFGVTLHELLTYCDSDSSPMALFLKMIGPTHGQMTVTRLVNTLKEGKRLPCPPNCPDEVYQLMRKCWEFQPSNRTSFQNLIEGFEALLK
Recombinant human JAK3 catalytic domain (amino acids 781-1124), sequence (P52333 781-1124): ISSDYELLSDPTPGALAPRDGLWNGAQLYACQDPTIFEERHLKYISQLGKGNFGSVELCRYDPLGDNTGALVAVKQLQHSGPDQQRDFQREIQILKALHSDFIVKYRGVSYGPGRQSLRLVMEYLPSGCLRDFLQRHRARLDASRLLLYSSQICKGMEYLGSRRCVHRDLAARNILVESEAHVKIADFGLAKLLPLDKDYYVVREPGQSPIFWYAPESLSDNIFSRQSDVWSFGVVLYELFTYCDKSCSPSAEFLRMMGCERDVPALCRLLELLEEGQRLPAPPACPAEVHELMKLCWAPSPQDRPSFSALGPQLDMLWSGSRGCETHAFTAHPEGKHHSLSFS

Regarding `CN(c1cc(Nc2cc(N)ncn2)c2ncn(C)c2n1)[C@@H]1CCC[C@@H](C#N)C1` (racemic) [Compound 13, (±)-(1R,3R)-3-{[7-(6-Amino-pyrimidin-4-ylamino)-3-methyl-3H-imidazo[4,5-b]pyridin-5-yl]-methyl-amino}-cyclohexanecarbonitrile], the IC50 came to 0.00316 µM in assay [1], 0.00966 µM in assay [2], 0.00192 µM in assay [3] and 0.0244 µM in assay [4].

Take `Cc1cc(C#N)ncc1Oc1cc(Nc2ccc(C(=O)NC3CCC(O)C3)cn2)c2ncn(C)c2n1` (racemic) [Compound 139, 6-[[5-(6-cyano-4-methylpyridin-3-yl)oxy-3-methylimidazo[4,5-b]pyridin-7-yl]amino]-N-[rac-(1R,3R)-3-hydroxycyclopentyl]pyridine-3-carboxamide]: the IC50 in assay [1] came to 0.0237 µM; in assay [2], 0.673 µM; in assay [3] it was 0.00564 µM; in assay [4], 0.0338 µM.

As to `Cc1cc(C#N)ncc1Oc1cc(Nc2ccc(C(=O)NCC(C)O)nc2)c2ncn(C)c2n1` (stereo not shown) [Compound 30, 5-[5-(6-Cyano-4-methyl-pyridin-3-yloxy)-3-methyl-3H-imidazo[4,5-b]pyridin-7-ylamino]-pyridine-2-carboxylic acid (2-hydroxy-propyl)-amide], the IC50 in assay [1] came out at 0.777 µM; in assay [3], 0.0557 µM; in assay [4] it was 0.399 µM.

Turning to `Cc1cc(C#N)ncc1Oc1cc(Nc2ccc(CN(C)CCN(C)C)cn2)c2ncn(C)c2n1` [Compound 83, 5-[7-[[5-[[2-(dimethylamino)ethyl-methylamino]methyl]pyridin-2-yl]amino]-3-methylimidazo[4,5-b]pyridin-5-yl]oxy-4-methylpyridine-2-carbonitrile formate salt], the half-inhibitory concentration (IC50) in assay [1] is 0.0271 µM; in assay [3], 0.0163 µM; in assay [4], 0.278 µM; in assay [5], 0.987 µM; in assay [6] it was 0.137 µM.

With `Cc1cc(C#N)ncc1Oc1cc(Nc2ccc(C(=O)N3CCO[C@H](C)C3)cn2)c2ncn(C)c2n1` [Compound 145, 4-methyl-5-[3-methyl-7-[[5-[(2R)-2-methylmorpholine-4-carbonyl]pyridin-2-yl]amino]imidazo[4,5-b]pyridin-5-yl]oxypyridine-2-carbonitrile], the IC50 in assay [3] amounted to 0.002 µM; in assay [5], 0.238 µM; in assay [6], 0.134 µM.

Consider `Cc1cc(C#N)ncc1Oc1cc(Nc2ccc(C(=O)N3CCOC[C@@H]3C)cn2)c2ncn(C)c2n1` [Compound 147, 4-methyl-5-[3-methyl-7-[[5-[(3S)-3-methylmorpholine-4-carbonyl]pyridin-2-yl]amino]imidazo[4,5-b]pyridin-5-yl]oxypyridine-2-carbonitrile], for which the figures for the 50% inhibitory concentration (IC50) in assay [3], in assay [5] and in assay [6] were 0.00166 µM, 0.213 µM and 0.121 µM, respectively.

As to `Cc1cc(C#N)ncc1Oc1cc(Nc2ccc(C(=O)N3C[C@@H](C)O[C@@H](C)C3)cn2)c2ncn(C)c2n1` [Compound 148, 4-methyl-5-[3-methyl-7-[[5-[rac-(2R,6S)-2,6-dimethylmorpholine-4-carbonyl]pyridin-2-yl]amino]imidazo[4,5-b]pyridn-5-yl]oxypyridine-2-carbonitrile], the IC50 turned out to be 0.00208 µM in assay [3], 0.16 µM in assay [5] and 0.142 µM in assay [6].

As to `Cc1cc(C#N)ncc1Oc1cc(Nc2ccc(C(=O)N3C[C@@H](O)[C@H](N(C)C)C3)cn2)c2ncn(C)c2n1` [Compound 153, 5-{7-[5-((3R,4R)-3-Dimethylamino-4-hydroxy-pyrrolidine-1-carbonyl)-pyridin-2-ylamino]-3-methyl-3H-imidazo[4,5-b]pyridin-5-yloxy}-4-methyl-pyridine-2-carbonitrile], the IC50 amounted to 0.00183 µM in assay [3], 7.58 µM in assay [5] and 0.234 µM in assay [6].

For the molecule `Cc1cc(C#N)ncc1Oc1cc(Nc2ccc(C(=O)N3C[C@H](O)[C@@H](N4CCOCC4)C3)cn2)c2ncn(C)c2n1` [Compound 154, 5-{7-[5-((3S,4S)-3-Hydroxy-4-morpholin-4-yl-pyrrolidine-1-carbonyl)-pyridin-2-ylamino]-3-methyl-3H-imidazo[4,5-b]pyridin-5-yloxy}-4-methyl-pyridine-2-carbonitrile], the 50% inhibitory concentration (IC50) in assay [3] came out at 0.00336 µM; in assay [5] it was 8.72 µM; in assay [6], 0.351 µM.

Regarding `Cc1cc(C#N)ncc1Oc1cc(Nc2ccc(C(=O)N3CC4CC3CO4)cn2)c2ncn(C)c2n1` (stereo not shown) [Compound 158, 4-methyl-5-[3-methyl-7-[[5-(2-oxa-5-azabicyclo[2.2.1]heptane-5-carbonyl)pyridin-2-yl]amino]imidazo[4,5-b]pyridin-5-yl]oxypyridine-2-carbonitrile], the figures for the IC50 in assay [3], in assay [5] and in assay [6] were 0.00121 µM, 0.204 µM and 0.087 µM, respectively.

On to `Cc1cc(C#N)ncc1Oc1cc(Nc2ccc(C(=O)N3CCNCC3)cn2)c2ncn(C)c2n1` [Compound 178, 4-methyl-5-[3-methyl-7-[[5-(piperazine-1-carbonyl)pyridin-2-yl]amino]imidazo[4,5-b]pyridin-5-yl]oxypyridine-2-carbonitrile], for which the results for the IC50 in assay [3], in assay [5] and in assay [6] were 0.00339 µM, 2.57 µM and 0.189 µM, respectively.
